Laboratory results: US11498933B2, “Prodrug compositions” (The University of Liverpool, priority 2017, dated 2022)

Assays:
[1] = Prodrug hydrolysis in rat plasma; type: in vitro ADME; conditions: 37° C., depletion of starting material, read-out: Rat Plasma t1/2
Method: (§1) Reaction mixtures containing either mouse liver S9 (20.8 mg/mL), mouse plasma, rat liver S9 (1 mg/mL) and phosphate buffer (100 mM, pH 7.4), rat plasma, human liver S9 (1.0 mg/mL) and phosphate buffer (100 mM, pH 7.4) or human plasma were pre-incubated at 37° C. for 5 minutes. Reactions were then initiated by addition of compounds 4, 8 or 16 (1 mM in mouse, 0.5 mM in rat and human). […] The samples were analyzed by HPLC with UV detection and the resulting hydrolysis data can be seen in FIG. 12.
(§2) In all cases, the half-lives for compound 4 are shorter than that of compound 8. […] In all cases, the half-life indicates the depletion of starting material compounds. […] In human compartments, only carbonate cleavage is observed.

[2] = Prodrug hydrolysis in rat liver S9; type: in vitro ADME; conditions: pH 7.4, rat liver S9 1 mg/mL, 37° C., depletion of starting material, read-out: Rat Liver t1/2
Method: as §1, §2

[3] = Prodrug hydrolysis in human plasma; type: in vitro ADME; conditions: 37° C., depletion of starting material, read-out: Human Plasma t1/2
Method: as §1, §2

[4] = Prodrug hydrolysis in human liver S9; type: in vitro ADME; conditions: pH 7.4, human liver S9 1.0 mg/mL, 37° C., depletion of starting material, read-out: Human Liver t1/2
Method: as §1, §2

[5] = Kinetic analysis of 5′-acyloxy/alkoxycarbonyl prodrug hydrolysis in human liver S9 (HPLC-UV); type: in vitro ADME; conditions: for half-lives in human liver S9: FIG. 7; for Km: both sexes, human, pooled human liver S9, pH 7.4, 17: 5′-acetoxy hydrolysis, 1.0 mg/mL S9, 5: 5′-pentoxycarbonyl hydrolysis, 3.0 mg/mL S9, 37° C.; for Km / Intrinsic Clearance / Vmax: conversion to compound 13; for Intrinsic Clearance / Vmax: 17: 1.0 mg/mL S9, 5: 3.0 mg/mL S9
Method: A reaction mixture containing Tris buffer (30 mM, pH 7.4) and mixed pooled gender liver S9 (1 mg/mL, 3.0 mg/mL, or 4.0 mg/mL) are pre-incubated at 37° C. for 5 minutes. To the reaction mixtures is added compound 17 which initiates the hydrolysis reaction (concentrations of compound 17 ranging from 200 μM to 10 mM). […] The supernatant was diluted into Tris buffer (30 mM, pH 7.4) to yield samples with concentrations appropriate for analysis. The samples were analyzed by HPLC with UV detection using the following method (0% to 100% acetonitrile in Et3NHOAc (50 mM, pH 8) gradient) over 10 minutes at a flow rate of 3 mL min^−1, held at 100% acetonitrile for 3 minutes, ramped down to 5% acetonitrile over 0.2 minutes and then held for 2.8 minutes.
Kinetic analysis data for the conversion of compound 17 to compound 13 via 5′-acetoxy hydrolysis is illustrated in FIG. 5. The hydrolysis was performed under conditions in which the pentyl carbamate group of compound 17 is stable in 1.0 mg/mL pooled mixed gender human liver S9. It was observed that the intrinsic clearance for the 5′-acetoxy hydrolysis is greater than that for the carbamate group hydrolysis.
Kinetic analysis data for the conversion of compound 5 to compound 13 via 5′-pentoxycarbonyl hydrolysis is illustrated in FIG. 6 (concentrations of compound 5 ranging from 200 μM to 10 mM). The hydrolysis was performed under conditions in which the pentyl carbamate group is stable in 3.0 mg/mL pooled mixed gender human liver S9. It was observed that the intrinsic clearance for 5′-pentoxycarbonyl hydrolysis is greater than that for carbamate group hydrolysis but reduced when compared to the intrinsic clearance of the 5′-acetoxy hydrolysis. Kinetic analysis data for the conversion of compound 17 to compound 13 via 5′-acetoxy hydrolysis and the conversion of compound 5 to compound 13 via 5′-pentoxycarbonyl hydrolysis is presented in Table 1 below.
Kinetic analysis data for compounds 20 and 21 in human liver S9 was generated in accordance with the general procedure described above.

[6] = tested on: CD4+ T cells; test: Viability staining (Zombie Red) in single-round infectivity assay
Method: Peripheral blood mononuclear cells were isolated from healthy blood donors using Hypaque-Ficoll gradient centrifugation. CD4+ T cells were selected by magnetic beads (Miltenyi) and activated using anti-CD3 and anti-CD28 antibodies. Activated cells were seeded onto a 96-well plate at a concentration of 1×10^5 cells/well in RPMI1640 supplemented with 10% FBS, cytokine-rich supernatant, and 50% heat-inactivated human serum. Test compounds were added at this step and maintained throughout the culture. Cells were incubated at 37° C. for 21 hours. Pseudotype (GFP-tagged) HIV was then added to the culture via spinoculation and incubated for 3 days. Cells were then washed and stained with Zombie Red viability stain. Infectivity was quantified using flow cytometry.

[7] = tested on: CYP enzymes; test: Cytochrome P450 activity in human liver microsomes; conditions: 1 mM, 2.0 mg/mL pooled mixed gender human liver microsomes
Method: (§3) Reaction mixtures containing phosphate buffer (100 mM, pH 7.4), mixed pooled gender human liver microsomes (2.0 mg/mL), NADP+ (1 mM), glucose-6-phosphate (5 mM), and glucose-6-phosphate dehydrogenase (1.5 Unit/mL) were pre-incubated at 37° C. for 5 minutes. The reactions were then initiated via the addition of emtricitabine or compound 13 (1 mM). After incubation at 37° C., aliquots were taken at each time point and quenched in two volumes of ice-cold methanol. The quenched aliquots were then centrifuged at 14000 rpm for 4 minutes. The supernatant was then diluted into phosphate buffer (100 mM, pH 7.4) to yield samples with concentrations suitable for analysis. The samples were analyzed by HPLC with UV detection using the following method (0% to 100% acetonitrile in Et3NHOAc (50 mM, pH 8) gradient) over 10 minutes at a flow rate of 3 mL min^−1, held at 100% acetonitrile for 3 minutes, ramped down to 5% acetonitrile over 0.2 minutes and then held for 2.8 minutes.

[8] = tested on: UGT enzymes; test: UGT activity in human liver S9; conditions: 1 mM, human liver S9 2.0 mg/mL, UDPGA 8 mM
Method: as §3, with “S9” for “microsomes”, “MgCl2 (10” for “NADP+ (1”, “UDPGA (8” for “glucose-6-phosphate (5”, “D-saccharic acid-1,4-lactone (2 mM)” for “glucose-6-phosphate dehydrogenase (1.5 Unit/mL)”, “by” for “via”

[9] = Half-life measurements in human plasma (HPLC-UV); type: in vitro ADME; conditions: human, plasma, 37° C., hydrolysis through two potential pathways, read-out: hydrolysis half-life in human plasma (converted)
Method: To evaluate the hydrolysis rates of emtricitabine compounds 9-16, HPLC coupled with UV detection was used with the following method (0% to 100% acetonitrile in Et3NHOAc (50 mM, pH 8) gradient) over 10 minutes at a flow rate of 3 mL min^−1, held at 100% acetonitrile for 3 minutes, ramped down to 5% acetonitrile over 0.2 minutes and then held for 2.8 minutes. Male human plasma (Bioreclamation) or female human skeletal muscle S9 (7.96 mg/mL, Bioreclamation) was pre-incubated at 37° C. for 5 minutes. Compounds 9-16 (1 mM) were added and the reaction was incubated at 37° C. […] The supernatant was diluted 10 fold into Tris buffer (30 mM, pH 7.4) and injected onto the HPLC for analysis.
To evaluate the hydrolysis rates of emtricitabine trimethyl lock prodrugs, HPLC coupled with UV detection was used with the following method (0% to 100% acetonitrile in Et3NHOAc (50 mM, pH 8) gradient) over 10 minutes at a flow rate of 3 mL min^−1, held at 100% acetonitrile for 3 minutes, ramped down to 5% acetonitrile over 0.2 minutes and then held for 2.8 minutes. Human plasma (Bioreclamation) or human skeletal muscle S9 (7.96 mg/mL, Bioreclamation) was pre-incubated at 37° C. for 5 minutes. Emtricitabine trimethyl lock compound 25 (1 mM) was added and the reaction was incubated at 37° C. […] The supernatant was diluted in Tris buffer (100 mM, pH 7.4) and injected onto the HPLC for analysis. […]

`CCCCOC(=O)Nc1nc(=O)n([C@@H]2CS[C@H](COC(=O)OCCCC)O2)cc1F` [Compound 4, butyl (1-((2R,5S)-2-(((butoxycarbonyl)oxy)methyl)-1,3-oxathiolan-5-yl)-5-fluoro-2-oxo-1,2-dihydropyrimidin-4-yl)carbamate] showed a half-life at 0.5 mM [1] of 5.8 min, a half-life at 0.5 mM [2] of 4.6 min and a half-life at 0.5 mM [3] of 59.2 min. The half-life at 0.5 mM [4] was 10.3 min.
With `CCCCCCCCOC(=O)Nc1nc(=O)n([C@@H]2CS[C@H](COC(C)=O)O2)cc1F` [Compound 20, ((2R,5S)-5-(5-fluoro-4-(((octyloxy)carbonyl)amino)-2-oxopyrimidin-1 (2H)-yl)-1,3-oxathiolan-2-yl)methyl acetate] the “half-lives in human liver S9” value [5] was “comparable half-lives”.
With `Nc1nc(=O)n([C@@H]2CS[C@H](CO)O2)cc1F` [Emtricitabine, emtricitabine] the “toxicity on CD4+ T cells (viability staining)” value [6] was “little to no toxicity”, the “metabolism by CYP enzymes” value [7] was “not metabolized” and the “metabolism by UGT enzymes” value [8] was “not metabolized”.
For `CCCCCOC(=O)Nc1nc(=O)n([C@@H]2CS[C@H](COC(=O)OCCCCC)O2)cc1F` [Compound 5, pentyl (5-fluoro-2-oxo-1-((2R,5S)-2-((((pentyloxy)carbonyl)oxy)methyl)-1,3-oxathiolan-5-yl)-1,2-dihydropyrimidin-4-yl)carbamate], the Km [5] was 600 µM, the “Intrinsic Clearance” value [5] was 26.33 µL/min/mg and the Vmax [5] was 948 nmol/h/mg.
`CC(=O)Oc1cc(C)cc(C)c1C(C)(C)CC(=O)Nc1ncnc2c1ncn2C[C@@H](C)OCP(=O)(N[C@@H](C)C(=O)OC(C)C)Oc1ccccc1` (stereo partly drawn) [Compound 26, (2S)-isopropyl (((((R)-1-(6-(3-(2-acetoxy-4,6-dimethylphenyl)-3-methylbutanamido)-9H-purin-9-yl)propan-2-yl)oxy)methyl)(phenoxy)phosphoryl)-L-alaninate] gave a half-life at 1 mM [9] of 66 min.
For `CCCCCOC(=O)Nc1nc(=O)n([C@@H]2CS[C@H](COC(C)=O)O2)cc1F` [Compound 17, ((2R,5S)-5-(5-fluoro-2-oxo-4-(((pentyloxy)carbonyl)amino)pyrimidin-1 (2H)-yl)-1,3-oxathiolan-2-yl)methyl acetate], the Km [5] was 1310 µM, the “Intrinsic Clearance” value [5] was 62.05 µL/min/mg and the Vmax [5] was 4877 nmol/h/mg.
In the case of `CCCCCCCCOC(=O)Nc1nc(=O)n([C@@H]2CS[C@H](COC(=O)OCCCCCCCC)O2)cc1F` [Compound 8, octyl (5-fluoro-1-((2R,5S)-2-((((octyloxy)carbonyl)oxy)methyl)-1,3-oxathiolan-5-yl)-2-oxo-1,2-dihydropyrimidin-4-yl)carbamate], the half-life at 0.5 mM [1] is reported as 16.7 min, the half-life at 0.5 mM [2] is reported as 33.3 min and the half-life at 0.5 mM [3] is reported as 578 min. It also gave a half-life at 0.5 mM [4] of 151 min.
In the case of `CCCCCCCCOC(=O)Nc1nc(=O)n([C@@H]2CS[C@H](COC(=O)C(C)C)O2)cc1F` [Compound 21, ((2R,5S)-5-(5-fluoro-4-(((octyloxy)carbonyl)amino)-2-oxopyrimidin-1 (2H)-yl)-1,3-oxathiolan-2-yl)methyl isobutyrate], the “half-lives in human liver S9” value [5] is reported as “comparable half-lives”.
